For orientation: Ki means the equilibrium dissociation constant of an inhibitor or competing ligand from its target. The low end stands for a stronger hold on the target, the high end for a looser hold on the target.

Experimental findings from BindingDB's records for doi:10.1016/0024-3205(90)90472-4 (University of Arizona, 1990) are described below.

The test has as its target T1, Muscarinic acetylcholine receptor M2 (Rattus norvegicus, UniProt P10980).
T1 sequence (P10980 whole entry): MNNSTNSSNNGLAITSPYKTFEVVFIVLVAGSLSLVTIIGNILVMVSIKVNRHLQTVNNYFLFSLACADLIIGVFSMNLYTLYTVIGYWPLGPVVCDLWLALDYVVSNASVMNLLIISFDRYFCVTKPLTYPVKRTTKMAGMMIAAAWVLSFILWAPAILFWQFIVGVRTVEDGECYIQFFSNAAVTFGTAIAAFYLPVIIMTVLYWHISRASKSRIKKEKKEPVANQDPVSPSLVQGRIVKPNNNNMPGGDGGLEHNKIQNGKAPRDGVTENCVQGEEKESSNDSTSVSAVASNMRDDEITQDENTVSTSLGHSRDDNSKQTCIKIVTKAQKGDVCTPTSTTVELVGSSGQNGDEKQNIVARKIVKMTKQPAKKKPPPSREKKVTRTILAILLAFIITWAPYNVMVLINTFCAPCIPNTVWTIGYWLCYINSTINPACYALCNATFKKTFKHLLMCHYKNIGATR

`C[C@H]1OC(=O)C2C[C@H]3CCCC[C@@H]3[C@@H](/C=C/[C@@H]3CCC[C@H](C)N3C)C21` (stereo partly specified) [HIMBACINE] returned a Ki of 0.0102 µM.
